# Experiments:
# [1] = tested on: intracerebral (i.c.) Streptozotocin (STZ) rat model of Alzheimer's disease; assay: Intracerebral Streptozotocin rat model of Alzheimer's disease, Morris Water Maze testing; type: in vivo, Long Evans rats; settings: 0.25 mg/kg oral gavage every other day for 14 days; control and STZ rats; tested 11 days post-dosing
# Description: The experimental rat model of Alzheimer's disease used in Table 7 involves intracerebral (i.c.) treatment with Streptozotocin (STZ), to cause brain metabolic dysfunction and insulin resistance as occurs in human sporadic Alzheimer' disease, with minimal or no systemic side-effects. Long Evans 4-week old male and female rats (8-12/group) were anesthetized by intraperitoneal (i.p.) injection of ketamine (100 mg/kg) plus xylazine (10 mg/kg). After shaving and cleaning (betadine x2 followed by 70% ethanol) the scalps, the rats were positioned in a stereotaxic frame and a midline incision was made. With subcutaneous tissue and skeletal muscle separated and retracted with small surgical hooks, the bregma and lambda areas were cleaned with 3% H2O2 soaked cotton swabs. […]
# T3D-959 administration (0.25 mg/kg) to control and STZ rats was by oral gavage every other day for a period of 14-days. […] The latency to locate the platform was measured. Spatial memory and orientation were assessed by requiring the rat to locate the hidden platform from different entry points in the maze. […]
# Data were analyzed by first calculating area under curves for each set of 3 trials, then averaging the AUC results within-group. […] Data were analyzed by 1-way ANOVA with Fisher post-tests. […]
# [2] = tested on: mild to moderate severity Alzheimer's patients (MMSE=14-26); assay: ADAS-cog11 score change in Alzheimer's patients after 14-day treatment; type: in vivo, human
# Description: ADAS-cog11 score change from day 1 to day 14 (D1-D14), the end of 2-week treatment is compared to the ADAS-cog 1 from day 1 to day 21 (D1-D21), 7-days post treatment follow-up. With ADAS-cog 1 test scoring a greater negative score denotes greater cognitive improvement. Drug treatment of mild to moderate severity Alzheimer's patients (MMSE=14-26) with T3D-959 was for 14 days q.d. at 3 mg, 10 mg, 30 mg or 90 mg (n=number of subjects evaluable at each dose).
structure (smiles),measurement,setting,value
CCc1oc(-c2ccc(OC)cc2)nc1CCOc1ccc2c(c1)CC[C@H]2CC(=O)[O-].[Na+] [Example T3D-959],"Morris Water Maze latency to locate the platform (spatial localization and memory, AUC of trials)",[1],benefited control as well as STZ-exposed rats
same,subjects who exhibited an improved ADAS-cog11 test score,"[2]; 10 mg cohort, 14 days q.d.",5 of 9
same,ADAS-cog11 score change D1-D14 compared to D1-D21,"[2]; 14 days q.d. at 3 mg, 10 mg, 30 mg or 90 mg, D21 = 7-days post treatment follow-up",cognitive improvement lasting beyond the end of treatment
